SMILES strings stand for the structures. ≈ marks a conversion by molar mass, not a printed value.

Experimental findings from ChEMBL document CHEMBL3808292, “Synthesis and biological evaluation of 5,7-dihydroxyflavanone derivatives as antimicrobial agents” (Bioorg Med Chem Lett, 2016) are described below.

The subject of one series is Saccharomyces cerevisiae. In words: Antifungal activity against Saccharomyces cerevisiae INVSc1 after 24 hrs by spectrophotometric method. Type of series: functional. The following applies: INVSc1, 24 h.
Another series relates to Bacillus subtilis. In words: Antimicrobial activity against Bacillus subtilis 1012 after 24 hrs by spectrophotometric method. Type of series: functional. The following applies: Bacillus subtilis, 1012, 24 h.
The next series has as its system Escherichia coli. The series is described as follows: Antimicrobial activity against Escherichia coli BW25113 after 24 hrs by spectrophotometric method. The following applies: BW25113, 24 h. Type of series: functional.
A further series concerns Pseudomonas aeruginosa. The series is described as follows: Antimicrobial activity against Pseudomonas aeruginosa PAO1 after 24 hrs by spectrophotometric method. Type of series: functional. The following applies: PAO1, 24 h.
A short description of series [1]: Aqueous solubility of compound. Type of series: physicochemical. The following applies: buffer.
The test system of the next series is Bacillus cereus. The series is described as follows: Antimicrobial activity against Bacillus cereus 10987 after 24 hrs by spectrophotometric method. Type of series: functional. The following applies: Bacillus cereus, 10987, 24 h.
A further series deals with Staphylococcus aureus. In words: Antimicrobial activity against Staphylococcus aureus ATCC 33807 after 24 hrs by spectrophotometric method. Type of series: functional. The following applies: ATCC 33807, 24 h.
In another series the test system is Vibrio cholerae. The series is described as follows: Antimicrobial activity against Vibrio cholerae 0395N1 after 24 hrs by spectrophotometric method. Type of series: functional. The following applies: 0395N1, 24 h.
The next series deals with Bacillus anthracis. In words: Antimicrobial activity against Bacillus anthracis delta sterne after 24 hrs by spectrophotometric method. Type of series: functional.
The nature of series [2]: Aqueous solubility of compound at 50 uM. Type of series: physicochemical. The following applies: buffer.
The test system of series [3] is HepG2. The series is described as follows: (§1) Cytotoxicity against human HepG2 cells assessed as cell viability at 50 uM after 24 hrs by MTS assay. Type of series: cell-based. The following applies: hepg2, 24 h, 50 µM. (In general: Tetrazolium dyes change colour on reduction, which living cells bring about.)
Series [4] concerns HepG2. The series is described as follows: Cytotoxicity against human HepG2 cells assessed as cell viability after 24 hrs by MTS assay. Type of series: cell-based. The following applies: for Activity: human, hepg2, 24 h.
The nature of series [5]: Cytotoxicity against human HepG2 cells assessed as cell viability at 50 uM after 6 hrs by MTS assay. Type of series: cell-based. The following applies: read-out: Activity.
Series [6] in a line: as §1. Type of series: cell-based. The following applies: HepG2 cells, read-out: Activity.

A word on the MIC: it is the lowest concentration that inhibits growth of the organism. The term solubility denotes how much of the substance goes into solution per volume. High values mean a readily soluble substance, low ones a poorly soluble substance. For the compound `O=C1CC(c2ccc(Cl)c(F)c2)Oc2cc(O)cc(O)c21` (centres undefined), the minimal inhibitory concentration (MIC) with Saccharomyces cerevisiae turned out to be 250 µM (≈ 77.2 µg/mL); against Bacillus subtilis it was 125 µM (≈ 38.6 µg/mL); in the series with Escherichia coli, 250 µM (≈ 77.2 µg/mL); in the series on Pseudomonas aeruginosa, 250 µM (≈ 77.2 µg/mL); against Bacillus cereus it was 93.8 µM (≈ 28.9 µg/mL); in the series on Staphylococcus aureus, 125 µM (≈ 38.6 µg/mL). The MIC in the series on Vibrio cholerae amounted to 125 µM (≈ 38.6 µg/mL); with Bacillus anthracis, 62.5 µM (≈ 19.3 µg/mL). Besides, the results for the solubility in series [1] and in [2] were 500 µM (≈ 154 µg/mL) and “soluble”, respectively. Besides, the Activity entry with HepG2 [3] was “Non-toxic”; with HepG2 [4] it was “Dose-dependent effect”.

In the case of `O=C1CC(c2ccc(F)cc2)Oc2cc(O)cc(O)c21` (centres undefined), the minimum inhibitory concentration (MIC) was determined as 250 µM (≈ 68.6 µg/mL) against Saccharomyces cerevisiae; 125 µM (≈ 34.3 µg/mL) with Bacillus subtilis; 500 µM (≈ 137 µg/mL) against Escherichia coli; 500 µM (≈ 137 µg/mL) against Pseudomonas aeruginosa; 125 µM (≈ 34.3 µg/mL) against Bacillus cereus; 125 µM (≈ 34.3 µg/mL) in the series with Staphylococcus aureus. In addition, the MIC in the series with Vibrio cholerae and against Bacillus anthracis was 125 µM (≈ 34.3 µg/mL) each time. The solubility in [1] is 1000 µM (≈ 274 µg/mL); in series [2], “soluble”. The Activity entry in the series on HepG2 [3] was “Non-toxic”; in the series with HepG2 [4], “Dose-dependent effect”.

Consider `O=C1CC(c2ccc(F)c(F)c2)Oc2cc(O)cc(O)c21` (centres undefined), for which the MIC in the series on Saccharomyces cerevisiae worked out at 1000 µM (≈ 292 µg/mL); in the series on Bacillus subtilis it was 125 µM (≈ 36.5 µg/mL); with Escherichia coli it was 1000 µM (≈ 292 µg/mL); against Pseudomonas aeruginosa, 1000 µM (≈ 292 µg/mL); against Bacillus cereus, 125 µM (≈ 36.5 µg/mL); against Staphylococcus aureus, 125 µM (≈ 36.5 µg/mL). In addition, the MIC came to 125 µM (≈ 36.5 µg/mL) in the series on Vibrio cholerae and 62.5 µM (≈ 18.3 µg/mL) with Bacillus anthracis. In addition, the solubility in series [1] was 1000 µM (≈ 292 µg/mL); in series [2] it was “soluble”. Also, the results for the Activity entry with HepG2 [3] and in the series on HepG2 [4] were “Non-toxic” and “Dose-dependent effect”, respectively.

Turning to `O=C1CC(c2ccc(Cl)c(Cl)c2)Oc2cc(O)cc(O)c21` (centres undefined), the MIC amounted to 31.2 µM (≈ 10.2 µg/mL) in the series with Saccharomyces cerevisiae; 62.5 µM (≈ 20.3 µg/mL) in the series on Bacillus subtilis; 125 µM (≈ 40.6 µg/mL) in the series with Escherichia coli; 125 µM (≈ 40.6 µg/mL) with Pseudomonas aeruginosa; 31.2 µM (≈ 10.2 µg/mL) with Bacillus cereus; 62.5 µM (≈ 20.3 µg/mL) in the series on Staphylococcus aureus. Also, the MIC in the series with Vibrio cholerae amounted to 125 µM (≈ 40.6 µg/mL); against Bacillus anthracis it was 31.2 µM (≈ 10.2 µg/mL). For the same compound, in series [5], the viability at 6 h, 50 µM came out at 17%. Also, the solubility in series [1] is 63 µM (≈ 20.5 µg/mL); in series [2], “soluble”. Also, the viability at 24 h, 50 µM in [6] is 57%. Moreover, the Activity result in the series on HepG2 [4] was “Dose-dependent effect”.

A word on the IC50: it is the midpoint of a concentration-inhibition curve. Regarding `O=C1CC(c2cc(F)c(F)c(F)c2)Oc2cc(O)cc(O)c21` (centres undefined), the minimum inhibitory concentration (MIC) against Saccharomyces cerevisiae came to 125 µM (≈ 38.8 µg/mL); against Bacillus subtilis, 1000 µM (≈ 310 µg/mL); in the series with Escherichia coli, 1000 µM (≈ 310 µg/mL); against Pseudomonas aeruginosa it was 1000 µM (≈ 310 µg/mL); in the series on Bacillus cereus, 1000 µM (≈ 310 µg/mL); with Staphylococcus aureus, 1000 µM (≈ 310 µg/mL). The MIC against Vibrio cholerae and in the series with Bacillus anthracis was 1000 µM (≈ 310 µg/mL) throughout. In addition, the solubility in series [1] is 500 µM (≈ 155 µg/mL); in series [2], “soluble”. The Activity entry was “Non-toxic” with HepG2 [3] and “Dose-dependent effect” in the series on HepG2 [4]. Besides, the IC50 in the series with HepG2 [4] (Homo sapiens, HepG2, 24 h) was found to be 95 µM.

Regarding `O=C1CC(c2cc(O)c(O)c(O)c2)Oc2cc(O)cc(O)c21` (centres undefined), the MIC in the series on Saccharomyces cerevisiae, in the series with Bacillus subtilis, in the series on Escherichia coli, in the series on Pseudomonas aeruginosa, with Bacillus cereus and in the series with Staphylococcus aureus was 1000 µM (≈ 304 µg/mL) in each case. Besides, the minimal inhibitory concentration (MIC) in the series with Vibrio cholerae and in the series with Bacillus anthracis was 1000 µM (≈ 304 µg/mL) throughout. Further, the solubility in series [1] was 63 µM (≈ 19.2 µg/mL); in series [2] it was “soluble”. The figures for the Activity entry with HepG2 [3] and in the series on HepG2 [4] were “Non-toxic” and “Dose-dependent effect”, respectively.
